Reference: ChEMBL document CHEMBL3885881, “DrugMatrix”

Species: Rattus norvegicus
Assay: DrugMatrix - Regimen: Daily Repeat
Format: toxicity, organism-based, Sprague-Dawley
Set-up: regimen Daily Repeat, gender Male, age 6-8 weeks
Settings: in vivo, sc, route subcutaneous, […]; for ABSOLUTE BASOPHIL / ABSOLUTE EOSINOPHIL / ABSOLUTE LYMPHOCYTE / ABSOLUTE MONOCYTE / ABSOLUTE SEGMENTED NEUTROPHIL / BASOPHIL / EOSINOPHIL / ERYTHROCYTE COUNT / HEMATOCRIT / HEMOGLOBIN / LEUKOCYTE COUNT / LYMPHOCYTE / MEAN CORPUSCULAR HEMOGLOBIN / MEAN CORPUSCULAR HEMOGLOBIN CONCENTRATION / MEAN CORPUSCULAR VOLUME / MONOCYTE / NEUTROPHIL / NUCLEATED RED BLOOD CELLS / PLATELET COUNT: tissue Blood; for ALANINE AMINOTRANSFERASE / ALBUMIN / ALKALINE PHOSPHATASE / ASPARTATE AMINOTRANSFERASE / BLOOD UREA NITROGEN / CARBON DIOXIDE / CHLORIDE / CHOLESTEROL / CREATINE PHOSPHOKINASE / CREATININE / GLUCOSE / LACTATE DEHYDROGENASE / LIPASE / PHOSPHORUS / POTASSIUM / SODIUM / TOTAL BILIRUBIN / TOTAL PROTEIN / URIC ACID: tissue Plasma
[1] = 0.07 mg/kg, 72 h, dose level Low, time 3 day
[2] = 0.07 mg/kg, 120 h, dose level Low, time 5 day
[3] = 72 h, dose 2.5 mg/Kg, dose level High, time 3 day
[4] = 120 h, dose 2.5 mg/Kg, dose level High, time 5 day

## CC1(C)O[C@@H]2C[C@H]3[C@@H]4C[C@H](F)C5=CC(=O)C=C[C@]5(C)[C@@]4(F)[C@@H](O)C[C@]3(C)[C@]2(C(=O)CO)O1 [FLUOCINOLONE ACETONIDE]
[1]
  ABSOLUTE BASOPHIL: 0 CELLS/uL
  ABSOLUTE EOSINOPHIL: 53 CELLS/uL
  ABSOLUTE LYMPHOCYTE: 3882.67 CELLS/uL
  ABSOLUTE MONOCYTE: 130 CELLS/uL
  ABSOLUTE SEGMENTED NEUTROPHIL: 1667.67 CELLS/uL
  BASOPHIL: 0%
  EOSINOPHIL: 1%
  ERYTHROCYTE COUNT: 5.77 x10E6/uL
  HEMATOCRIT: 37.27%
  HEMOGLOBIN: 13.5 G/DL
  LEUKOCYTE COUNT: 5.73 x10E3/uL
  LYMPHOCYTE: 66%
  MEAN CORPUSCULAR HEMOGLOBIN: 23.4 pg
  MEAN CORPUSCULAR HEMOGLOBIN CONCENTRATION: 36.23 G/DL
  MEAN CORPUSCULAR VOLUME: 64.67 fL
  MONOCYTE: 2.33%
  NEUTROPHIL: 30.67%
  NUCLEATED RED BLOOD CELLS: 0.67 /100WBC
  PLATELET COUNT: 1436 x10E3/uL
  ALANINE AMINOTRANSFERASE: 77.67 u/L
  ALBUMIN: 5.23 G/DL
  ALKALINE PHOSPHATASE: 414.67 u/L
  ASPARTATE AMINOTRANSFERASE: 135.67 u/L
  BLOOD UREA NITROGEN: 21.33 mg/dL
  CARBON DIOXIDE: 24.33 mmol/L
  CHLORIDE: 102 MEQ/L
  CHOLESTEROL: 107 mg/dL
  CREATINE PHOSPHOKINASE: 290 u/L
  CREATININE: 0.31 mg/dL
  GLUCOSE: 275.67 mg/dL
  LACTATE DEHYDROGENASE: 425.33 u/L
  LIPASE: 10.67 u/L
  PHOSPHORUS: 13.03 mg/dL
  POTASSIUM: 5.79 MEQ/L
  SODIUM: 145.07 MEQ/L
  TOTAL BILIRUBIN: 0.27 mg/dL
  TOTAL PROTEIN: 7.07 G/DL
  URIC ACID: 1.47 mg/dL
[2]
  ABSOLUTE BASOPHIL: 0 CELLS/uL
  ABSOLUTE EOSINOPHIL: 0 CELLS/uL
  ABSOLUTE LYMPHOCYTE: 1551.33 CELLS/uL
  ABSOLUTE MONOCYTE: 16 CELLS/uL
  ABSOLUTE SEGMENTED NEUTROPHIL: 3699.33 CELLS/uL
  BASOPHIL: 0%
  EOSINOPHIL: 0%
  ERYTHROCYTE COUNT: 6.67 x10E6/uL
  HEMATOCRIT: 40.23%
  HEMOGLOBIN: 14.73 G/DL
  LEUKOCYTE COUNT: 5.27 x10E3/uL
  LYMPHOCYTE: 32%
  MEAN CORPUSCULAR HEMOGLOBIN: 22.1 pg
  MEAN CORPUSCULAR HEMOGLOBIN CONCENTRATION: 36.6 G/DL
  MEAN CORPUSCULAR VOLUME: 60.37 fL
  MONOCYTE: 0.33%
  NEUTROPHIL: 67.67%
  NUCLEATED RED BLOOD CELLS: 1 /100WBC
  PLATELET COUNT: 1631 x10E3/uL
  ALANINE AMINOTRANSFERASE: 131 u/L
  ALBUMIN: 4.93 G/DL
  ALKALINE PHOSPHATASE: 313 u/L
  ASPARTATE AMINOTRANSFERASE: 231.67 u/L
  BLOOD UREA NITROGEN: 20.33 mg/dL
  CARBON DIOXIDE: 24 mmol/L
  CHLORIDE: 102.33 MEQ/L
  CHOLESTEROL: 92.33 mg/dL
  CREATINE PHOSPHOKINASE: 1505.67 u/L
  CREATININE: 0.26 mg/dL
  GLUCOSE: 389.33 mg/dL
  LACTATE DEHYDROGENASE: 225 u/L
  LIPASE: 10 u/L
  PHOSPHORUS: 13.57 mg/dL
  POTASSIUM: 5.94 MEQ/L
  SODIUM: 147.93 MEQ/L
  TOTAL BILIRUBIN: 0.2 mg/dL
  TOTAL PROTEIN: 6.7 G/DL
  URIC ACID: 2.67 mg/dL
[3]
  ABSOLUTE BASOPHIL: 0 CELLS/uL
  ABSOLUTE EOSINOPHIL: 0 CELLS/uL
  ABSOLUTE LYMPHOCYTE: 365.67 CELLS/uL
  ABSOLUTE MONOCYTE: 12.67 CELLS/uL
  ABSOLUTE SEGMENTED NEUTROPHIL: 5188.33 CELLS/uL
  BASOPHIL: 0%
  EOSINOPHIL: 0%
  ERYTHROCYTE COUNT: 4.97 x10E6/uL
  HEMATOCRIT: 32.1%
  HEMOGLOBIN: 11.87 G/DL
  LEUKOCYTE COUNT: 5.57 x10E3/uL
  LYMPHOCYTE: 6.67%
  MEAN CORPUSCULAR HEMOGLOBIN: 24.1 pg
  MEAN CORPUSCULAR HEMOGLOBIN CONCENTRATION: 37.03 G/DL
  MEAN CORPUSCULAR VOLUME: 64.97 fL
  MONOCYTE: 0.33%
  NEUTROPHIL: 93%
  NUCLEATED RED BLOOD CELLS: 0.67 /100WBC
  PLATELET COUNT: 1062 x10E3/uL
  ALANINE AMINOTRANSFERASE: 159.67 u/L
  ALBUMIN: 4.33 G/DL
  ALKALINE PHOSPHATASE: 320.67 u/L
  ASPARTATE AMINOTRANSFERASE: 309.33 u/L
  BLOOD UREA NITROGEN: 24.33 mg/dL
  CARBON DIOXIDE: 26 mmol/L
  CHLORIDE: 97 MEQ/L
  CHOLESTEROL: 133 mg/dL
  CREATINE PHOSPHOKINASE: 322 u/L
  CREATININE: 0.18 mg/dL
  GLUCOSE: 463 mg/dL
  LACTATE DEHYDROGENASE: 822 u/L
  LIPASE: 9.67 u/L
  PHOSPHORUS: 10.6 mg/dL
  POTASSIUM: 4.57 MEQ/L
  SODIUM: 142.47 MEQ/L
  TOTAL BILIRUBIN: 0.27 mg/dL
  TOTAL PROTEIN: 5.4 G/DL
  URIC ACID: 1.03 mg/dL
[4]
  ABSOLUTE BASOPHIL: 0 CELLS/uL
  ABSOLUTE EOSINOPHIL: 0 CELLS/uL
  ABSOLUTE LYMPHOCYTE: 450 CELLS/uL
  ABSOLUTE MONOCYTE: 219.33 CELLS/uL
  ABSOLUTE SEGMENTED NEUTROPHIL: 11864 CELLS/uL
  BASOPHIL: 0%
  EOSINOPHIL: 0%
  ERYTHROCYTE COUNT: 5.21 x10E6/uL
  HEMATOCRIT: 33.17%
  HEMOGLOBIN: 12.2 G/DL
  LEUKOCYTE COUNT: 12.53 x10E3/uL
  LYMPHOCYTE: 3.67%
  MEAN CORPUSCULAR HEMOGLOBIN: 23.37 pg
  MEAN CORPUSCULAR HEMOGLOBIN CONCENTRATION: 36.87 G/DL
  MEAN CORPUSCULAR VOLUME: 63.37 fL
  MONOCYTE: 1.67%
  NEUTROPHIL: 94.67%
  NUCLEATED RED BLOOD CELLS: 0 /100WBC
  PLATELET COUNT: 587.67 x10E3/uL
  ALANINE AMINOTRANSFERASE: 194 u/L
  ALBUMIN: 3.57 G/DL
  ALKALINE PHOSPHATASE: 289.67 u/L
  ASPARTATE AMINOTRANSFERASE: 380.33 u/L
  BLOOD UREA NITROGEN: 24.33 mg/dL
  CARBON DIOXIDE: 17.67 mmol/L
  CHLORIDE: 95 MEQ/L
  CHOLESTEROL: 90 mg/dL
  CREATINE PHOSPHOKINASE: 1694.33 u/L
  CREATININE: 0.29 mg/dL
  GLUCOSE: 635 mg/dL
  LACTATE DEHYDROGENASE: 429 u/L
  LIPASE: 10 u/L
  PHOSPHORUS: 14.6 mg/dL
  POTASSIUM: 6.12 MEQ/L
  SODIUM: 139.3 MEQ/L
  TOTAL BILIRUBIN: 0.2 mg/dL
  TOTAL PROTEIN: 4.67 G/DL
  URIC ACID: 3.2 mg/dL
